In series [1] the test system is TNFα release. In words: LPS-induced TNFα release in human blood diluted 1:5 (ELISA). Type of series: cell-based. Particulars: human blood diluted 1:5, LPS 10 μg/ml, 24 h, n = 8. As to the method:
In vitro investigations were carried out for influencing the release of the proinflammatory cytokine TNFα in human blood diluted 1:5. Stimulation was carried out using lipopolysaccharide (LPS) of Salmonella abortus equi (10 μg/ml) over the course of 24 h at 37° C. and 5% CO2 in an incubator. The TNFα release was carried out using an ELISA, composed from antibodies from Pharmigen. The results were indicated as the percentage inhibition of LPS-induced TNFα release (Table 1).

The nature of series [2]: Thymus involution in young rats on intrapulmonary powder administration over 29 days. Type of series: in vivo. Particulars: for Toxic dose with significant thymus involution: repeated intrapulmonary administration, 29 days, 1x daily, young rats; for Quotient of toxic dose: therapeutic dose (therapeutic breadth): toxic dose (mg/kg, 29 days) / ID50 (μg/kg, single dose), intrapulmonary, rats. On the procedure: In the second experiment, the influence of loteprednol on the thymus development of young rats (21 days old at the start of the experiment) was intensively investigated in comparison to budesonide and fluticasone (see Table 4). After an intrapulmonary long-term administration of the active compound in powder form over the course of 29 days (1× daily) by means of a tube, at the end of the experiment the thymus glands were removed and the organ weight per 100 g of body mass was determined.
(§1) The therapeutic breadth of the corticosteroids was determined with the aid of the quotient of the dose (mg/kg) with significant thymus involution (toxic dose) on repeated intrapulmonary administration over the course of 29 days (1× daily) and the therapeutic dose. The therapeutic dose was determined in the asthma model of late-phase eosinophilia on actively sensitized brown Norway rats. The active compound was administered to the sensitized brown Norway rats under anesthesia intrapulmonarily 2 hours before an allergen provocation (challenge) and 24 hours later the lungs of the animals were lavaged under deep anesthesia. The number of eosinophilic granulocytes in the pulmonary lavage fluid of untreated and active compound-treated rats was then determined. Corticosteroids such as loteprednol inhibit the infiltration of eosinophils into the lung after allergen provocation.

The subject of series [3] is eosinophilic granulocytes in the pulmonary lavage fluid. Put plainly: Late-phase eosinophilia in actively sensitized brown Norway rats, single intrapulmonary administration. Type of series: in vivo. Particulars: 2 h before allergen provocation. As to the method:
as §1

The conditions of series [4]: topically administered; cited from earlier work.
For series [5] the following is noted: topically administered; cited from earlier work. This is another data set of the same source.
Series [6] concerns eosinophilic granulocytes in the lung. In words: Late-phase eosinophilia in actively sensitized guinea pigs, pulmonary lavage 24 h after allergen provocation. Type of series: in vivo. Particulars: guinea pig.

SMILES strings stand for the structures.

Molecule `CC(C)(C)NCC(O)c1ccc(O)c(CO)c1` (stereo not drawn) [Salbutamol, salbutamol] showed an inhibition at 10 µM in series [1] (10 μmol/l) of 17%.
In the case of `CCCC1O[C@@H]2C[C@H]3[C@@H]4CCC5=CC(=O)C=C[C@]5(C)[C@H]4[C@@H](O)C[C@]3(C)[C@]2(C(=O)CO)O1` (stereo partly drawn) [Budesonide, budesonide], in series [2], the “Toxic dose with significant thymus involution” value came out at 500 µg/kg and the “Quotient of toxic dose: therapeutic dose (therapeutic breadth)” value (shortened to “Quotient of toxic dose: therapeutic dose”) is recorded as 5 ×10^3. For the same molecule, the “Therapeutic dose in late-phase eosinophilia ID50” value in series [3] came out at 0.1 µg/kg.
For `C[C@@H]1C[C@H]2[C@@H]3C[C@H](F)C4=CC(=O)C=C[C@]4(C)[C@@]3(F)[C@@H](O)C[C@]2(C)[C@@]1(O)C(=O)SCF` [Fluticasone, fluticasone], in series [2], the “Toxic dose with significant thymus involution” value stood at 1000 µg/kg and the “Quotient of toxic dose: therapeutic dose” value is 33 ×10^3. Further, the “Therapeutic dose in late-phase eosinophilia ID50” value in series [3] turned out to be 0.03 µg/kg.
Regarding `CCOC(=O)O[C@]1(C(=O)OCCl)CC[C@H]2[C@@H]3CCC4=CC(=O)C=C[C@]4(C)[C@H]3[C@@H](O)C[C@@]21C` [Loteprednol, loteprednol], the “Detection in the plasma” value in series [4] was “could not be detected in the plasma”. Further, in series [2], the “Toxic dose with significant thymus involution” value was found to be 20000 µg/kg and the “Quotient of toxic dose: therapeutic dose” value is 45.5 ×10^3. Further, in series [5], the “Increase of intraocular pressure” value is given as “does not increase the intraocular pressure”. Moreover, the “Therapeutic dose in late-phase eosinophilia ID50” value in series [3] is 0.44 µg/kg. Also, the Inhibition of eosinophilia in series [6] (0.001 mg/kg intrapulmonarily) is given as 10.5%. For the same molecule, the Inhibition of eosinophilia in series [6] (0.003 mg/kg intrapulmonarily) is reported as 21.8%. For the same molecule, the inhibition at 0.001 µM in series [1] (0.001 μmol/l) was found to be 1%.
